Results reported in publication PMC11532494 (Nature Communications, 2024).
Several values for one entry are separate records, joined by “and”; a condition that tells them apart may be missing. Identical values can stand only once.

How the values were obtained:
PsApaH (4) = PsApaH (4) (Pseudomonas sp. M30-35, UniProt A0A1Y0KY79); assay: Acetyl-polyamine deacetylase assay; assay type: biochemical; details: single samples (replicates)
LpApaH (3) = LpApaH (3) (Legionella pneumophila, UniProt A0A2S6EWV0); assay type: biochemical
KpHdaH (1b) = KpHdaH (1b) (Klebsiella pneumoniae, UniProt A0A377Z5F6); assay type: biochemical; details: KpKDAC (1b); single samples (replicates)
LcApaH (3) = LcApaH (3) (Legionella cherrii, UniProt A0A0W0SGS1); assay type: biochemical
BsAcuC (2c) = target: T1, BsAcuC (2c) (Bacillus subtilis, UniProt P39067); assay: Acetyl-polyamine deacetylase assay; assay type: biochemical; details: BsAcuC (2c) 3µM; single samples (replicates)
T1 construct: made in house; host or cells: E. coli BL21 (DE3)
T1 sequence (P39067 1-387): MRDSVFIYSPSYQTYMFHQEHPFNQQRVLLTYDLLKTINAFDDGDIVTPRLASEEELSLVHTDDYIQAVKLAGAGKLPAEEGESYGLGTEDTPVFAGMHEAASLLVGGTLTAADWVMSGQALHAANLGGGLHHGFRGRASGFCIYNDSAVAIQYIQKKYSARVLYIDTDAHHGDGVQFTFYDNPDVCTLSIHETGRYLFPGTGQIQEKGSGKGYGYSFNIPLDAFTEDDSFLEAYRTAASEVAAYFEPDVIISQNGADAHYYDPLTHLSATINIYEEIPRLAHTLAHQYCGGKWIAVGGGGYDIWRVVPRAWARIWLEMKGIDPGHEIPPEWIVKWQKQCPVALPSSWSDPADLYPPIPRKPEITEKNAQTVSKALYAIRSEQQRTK

VsHdaH (1b) = assay type: biochemical, Vibrio sp.; details: VsHdaH (1b) 3µM; single samples (replicates)
VcHdaH (5b) = assay: Acetyl-polyamine deacetylase assay; assay type: biochemical, Vibrio cholerae; details: VcHdaH (5b) 6µM; single samples (replicates)
PA1409 = PA1409 (Pseudomonas aeruginosa, UniProt Q9I3T5); assay: Acetyl-polyamine deacetylase assay (positive control); assay type: biochemical; details: sheet Figure 2d
RsPrpH (1b) = assay: Acetyl-polyamine deacetylase assay; assay type: biochemical, Rhizorhabdus sp.; details: RsPrpH 3µM; single samples (replicates)
RwDmhA (1b) = RwDmhA (1b) (Rhizorhabdus wittichii, UniProt A0A067XIQ6); assay type: biochemical; details: RwDmhA (1b) 3µM; single samples (replicates)
Sequence of RwDmhA (1b) (A0A067XIQ6 1-369): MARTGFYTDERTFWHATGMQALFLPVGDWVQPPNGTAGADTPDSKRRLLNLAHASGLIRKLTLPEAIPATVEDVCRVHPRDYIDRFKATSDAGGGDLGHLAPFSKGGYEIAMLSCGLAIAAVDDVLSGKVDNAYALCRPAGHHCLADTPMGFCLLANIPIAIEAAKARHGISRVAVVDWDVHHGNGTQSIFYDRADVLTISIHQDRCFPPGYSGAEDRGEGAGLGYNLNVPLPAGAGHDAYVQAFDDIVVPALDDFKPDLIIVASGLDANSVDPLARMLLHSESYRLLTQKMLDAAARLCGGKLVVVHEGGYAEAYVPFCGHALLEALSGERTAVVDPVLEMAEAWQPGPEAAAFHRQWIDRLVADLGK

Sequence of LpApaH (3) (A0A2S6EWV0 1-426): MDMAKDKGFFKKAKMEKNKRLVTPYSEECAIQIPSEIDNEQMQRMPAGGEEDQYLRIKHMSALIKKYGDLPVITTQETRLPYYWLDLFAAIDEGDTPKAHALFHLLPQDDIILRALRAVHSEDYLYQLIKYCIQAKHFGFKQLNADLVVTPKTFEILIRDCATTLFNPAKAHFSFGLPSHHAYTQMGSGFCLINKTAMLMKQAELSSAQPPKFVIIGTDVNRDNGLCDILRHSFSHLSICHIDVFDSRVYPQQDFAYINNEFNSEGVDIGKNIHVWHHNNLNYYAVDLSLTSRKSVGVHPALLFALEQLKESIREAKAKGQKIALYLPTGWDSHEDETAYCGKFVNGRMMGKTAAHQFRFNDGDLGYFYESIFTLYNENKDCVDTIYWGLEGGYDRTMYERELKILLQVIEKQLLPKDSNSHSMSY
Sequence of PsApaH (4) (A0A1Y0KY79 1-342 limits assumed): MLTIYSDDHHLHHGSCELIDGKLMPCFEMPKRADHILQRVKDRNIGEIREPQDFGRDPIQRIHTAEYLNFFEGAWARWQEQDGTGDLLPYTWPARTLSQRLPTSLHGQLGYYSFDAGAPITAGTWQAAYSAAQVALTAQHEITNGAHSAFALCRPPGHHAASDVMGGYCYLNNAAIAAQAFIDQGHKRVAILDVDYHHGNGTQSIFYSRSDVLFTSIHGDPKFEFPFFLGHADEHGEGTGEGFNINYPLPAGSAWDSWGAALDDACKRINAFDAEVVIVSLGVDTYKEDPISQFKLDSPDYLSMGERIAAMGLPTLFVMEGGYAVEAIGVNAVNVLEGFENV
Sequence of KpHdaH (1b) (A0A377Z5F6 1-371): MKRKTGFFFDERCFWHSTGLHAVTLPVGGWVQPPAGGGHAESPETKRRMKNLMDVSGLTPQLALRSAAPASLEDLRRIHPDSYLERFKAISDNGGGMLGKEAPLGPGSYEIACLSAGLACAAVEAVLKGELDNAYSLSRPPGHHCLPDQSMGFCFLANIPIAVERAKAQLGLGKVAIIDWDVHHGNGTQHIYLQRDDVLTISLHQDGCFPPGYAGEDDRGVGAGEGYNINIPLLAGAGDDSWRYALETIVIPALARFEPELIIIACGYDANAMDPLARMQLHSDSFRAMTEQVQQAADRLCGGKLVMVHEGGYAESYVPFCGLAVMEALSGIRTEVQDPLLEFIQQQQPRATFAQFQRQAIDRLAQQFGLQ
Sequence of LcApaH (3) (A0A0W0SGS1 1-425): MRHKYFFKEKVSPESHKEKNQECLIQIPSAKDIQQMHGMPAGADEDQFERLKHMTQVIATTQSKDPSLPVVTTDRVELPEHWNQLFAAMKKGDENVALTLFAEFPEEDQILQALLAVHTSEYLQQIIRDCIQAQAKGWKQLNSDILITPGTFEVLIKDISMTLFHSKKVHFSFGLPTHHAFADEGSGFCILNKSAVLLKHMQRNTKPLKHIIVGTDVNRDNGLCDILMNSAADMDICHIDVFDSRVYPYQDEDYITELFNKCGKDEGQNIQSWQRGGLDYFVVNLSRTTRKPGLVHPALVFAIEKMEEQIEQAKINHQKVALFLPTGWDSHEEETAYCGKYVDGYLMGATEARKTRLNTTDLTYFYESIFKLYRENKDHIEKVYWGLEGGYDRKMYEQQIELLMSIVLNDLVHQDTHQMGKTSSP
Sequence of PA1409 (Q9I3T5 whole entry): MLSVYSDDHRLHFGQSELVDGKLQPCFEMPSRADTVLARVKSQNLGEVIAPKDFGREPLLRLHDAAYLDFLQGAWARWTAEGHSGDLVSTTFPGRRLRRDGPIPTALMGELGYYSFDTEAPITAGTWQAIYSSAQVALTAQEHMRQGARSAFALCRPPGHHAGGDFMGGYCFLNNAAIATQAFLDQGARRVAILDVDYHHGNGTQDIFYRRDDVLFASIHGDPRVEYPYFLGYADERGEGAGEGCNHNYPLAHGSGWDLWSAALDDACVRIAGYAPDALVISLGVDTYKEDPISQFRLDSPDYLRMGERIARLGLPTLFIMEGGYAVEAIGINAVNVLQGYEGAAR

## CC(=O)NCCCCNCCCN [N8-acetyl-spermidine]
PsApaH (4)
  acetate released, g/l: 0.04138 g/L and 0.04164 g/L and 0.04191 g/L
  acetate released, mM: 0.6891 mM and 0.6935 mM and 0.6978 mM
LpApaH (3)
  acetate released, g/l: 0.00515 g/L and 0.00674 g/L
  acetate released, mM: 0.09 mM and 0.11 mM
  mM normalized to enzyme concentration: 0.0429 mM and 0.0561 mM
KpHdaH (1b)
  acetate released, g/l: -0.006957 g/L and 0.01217 g/L and 0.008116 g/L
  acetate released, mM: -0.1158 mM and 0.2027 mM and 0.1352 mM
  mM normalized to enzyme concentration: -0.02317 mM and 0.04055 mM and 0.02703 mM
LcApaH (3)
  acetate released, g/l: 0.008058 g/L and 0.009115 g/L
  acetate released, mM: 0.1342 mM and 0.1518 mM
  mM normalized to enzyme concentration: 0.1342 mM and 0.1518 mM
BsAcuC (2c)
  acetate released, g/l: 0.006919 g/L and 0.003003 g/L and 0.003525 g/L
  acetate released, mM: 0.1152 mM and 0.05 mM and 0.0587 mM
  mM normalized to enzyme concentration: 0.03841 mM and 0.01667 mM and 0.01957 mM
VsHdaH (1b)
  acetate released, g/l: 0.002742 g/L and 0.003003 g/L
  acetate released, mM: 0.04565 mM and 0.05 mM
  mM normalized to enzyme concentration: 0.01522 mM and 0.01667 mM and 0.02536 mM
VcHdaH (5b)
  acetate released, g/l: 0.002219 g/L and 0.004047 g/L and 0.004569 g/L
  acetate released, mM: 0.03696 mM and 0.06739 mM and 0.07609 mM
  mM normalized to enzyme concentration: 0.006159 mM and 0.01123 mM and 0.01268 mM
PA1409; absorbance difference between the two time points
  A1-A2: 0.581 and 0.564
PA1409; absorbance difference minus mean blank
  (A1-A2)-B: 0.5395 and 0.5225
RsPrpH (1b)
  acetate released, g/l: 0.01005 g/L and 0.01371 g/L and 0.01762 g/L
  acetate released, mM: 0.1674 mM and 0.2283 mM and 0.2935 mM
  mM normalized to enzyme concentration: 0.0558 mM and 0.07609 mM and 0.09783 mM
RwDmhA (1b)
  acetate released, g/l: 0.005875 g/L and 0.0006527 g/L
  acetate released, mM: 0.09783 mM and 0.01087 mM
  mM normalized to enzyme concentration: 0.02246 mM and 0.03261 mM and 0.003623 mM
